According to US11731976B2, “3-(ethoxydifluoromethyl)-6-(5-fluoro-6-(2,2,2-trifluoroethoxy)pyridin-3-yl)-[1,2,4]triazolo[4,3-a]pyridine as an ion channel modulator” (Praxis Precision Medicines, Inc., priority 2018, dated 2023):

Experiments:
[1] = target: T1, human NaV1.6 (hNaV1.6) (Homo sapiens, UniProt Q9UQD0); experiment: Modulation of late sodium current (INaL), PatchXpress electrophysiology, HEK-293 cells expressing hNaV1.6; format: cell-based; details: HEK293, late current evoked by 300 nM ATX-II, read-out: NaV 1.6 Assay Data: percent inhibition of INaL at hNaV1.6
T1 construct: expressed in transfected cells; host or cells: HEK-293
T1 sequence (Q9UQD0 whole entry): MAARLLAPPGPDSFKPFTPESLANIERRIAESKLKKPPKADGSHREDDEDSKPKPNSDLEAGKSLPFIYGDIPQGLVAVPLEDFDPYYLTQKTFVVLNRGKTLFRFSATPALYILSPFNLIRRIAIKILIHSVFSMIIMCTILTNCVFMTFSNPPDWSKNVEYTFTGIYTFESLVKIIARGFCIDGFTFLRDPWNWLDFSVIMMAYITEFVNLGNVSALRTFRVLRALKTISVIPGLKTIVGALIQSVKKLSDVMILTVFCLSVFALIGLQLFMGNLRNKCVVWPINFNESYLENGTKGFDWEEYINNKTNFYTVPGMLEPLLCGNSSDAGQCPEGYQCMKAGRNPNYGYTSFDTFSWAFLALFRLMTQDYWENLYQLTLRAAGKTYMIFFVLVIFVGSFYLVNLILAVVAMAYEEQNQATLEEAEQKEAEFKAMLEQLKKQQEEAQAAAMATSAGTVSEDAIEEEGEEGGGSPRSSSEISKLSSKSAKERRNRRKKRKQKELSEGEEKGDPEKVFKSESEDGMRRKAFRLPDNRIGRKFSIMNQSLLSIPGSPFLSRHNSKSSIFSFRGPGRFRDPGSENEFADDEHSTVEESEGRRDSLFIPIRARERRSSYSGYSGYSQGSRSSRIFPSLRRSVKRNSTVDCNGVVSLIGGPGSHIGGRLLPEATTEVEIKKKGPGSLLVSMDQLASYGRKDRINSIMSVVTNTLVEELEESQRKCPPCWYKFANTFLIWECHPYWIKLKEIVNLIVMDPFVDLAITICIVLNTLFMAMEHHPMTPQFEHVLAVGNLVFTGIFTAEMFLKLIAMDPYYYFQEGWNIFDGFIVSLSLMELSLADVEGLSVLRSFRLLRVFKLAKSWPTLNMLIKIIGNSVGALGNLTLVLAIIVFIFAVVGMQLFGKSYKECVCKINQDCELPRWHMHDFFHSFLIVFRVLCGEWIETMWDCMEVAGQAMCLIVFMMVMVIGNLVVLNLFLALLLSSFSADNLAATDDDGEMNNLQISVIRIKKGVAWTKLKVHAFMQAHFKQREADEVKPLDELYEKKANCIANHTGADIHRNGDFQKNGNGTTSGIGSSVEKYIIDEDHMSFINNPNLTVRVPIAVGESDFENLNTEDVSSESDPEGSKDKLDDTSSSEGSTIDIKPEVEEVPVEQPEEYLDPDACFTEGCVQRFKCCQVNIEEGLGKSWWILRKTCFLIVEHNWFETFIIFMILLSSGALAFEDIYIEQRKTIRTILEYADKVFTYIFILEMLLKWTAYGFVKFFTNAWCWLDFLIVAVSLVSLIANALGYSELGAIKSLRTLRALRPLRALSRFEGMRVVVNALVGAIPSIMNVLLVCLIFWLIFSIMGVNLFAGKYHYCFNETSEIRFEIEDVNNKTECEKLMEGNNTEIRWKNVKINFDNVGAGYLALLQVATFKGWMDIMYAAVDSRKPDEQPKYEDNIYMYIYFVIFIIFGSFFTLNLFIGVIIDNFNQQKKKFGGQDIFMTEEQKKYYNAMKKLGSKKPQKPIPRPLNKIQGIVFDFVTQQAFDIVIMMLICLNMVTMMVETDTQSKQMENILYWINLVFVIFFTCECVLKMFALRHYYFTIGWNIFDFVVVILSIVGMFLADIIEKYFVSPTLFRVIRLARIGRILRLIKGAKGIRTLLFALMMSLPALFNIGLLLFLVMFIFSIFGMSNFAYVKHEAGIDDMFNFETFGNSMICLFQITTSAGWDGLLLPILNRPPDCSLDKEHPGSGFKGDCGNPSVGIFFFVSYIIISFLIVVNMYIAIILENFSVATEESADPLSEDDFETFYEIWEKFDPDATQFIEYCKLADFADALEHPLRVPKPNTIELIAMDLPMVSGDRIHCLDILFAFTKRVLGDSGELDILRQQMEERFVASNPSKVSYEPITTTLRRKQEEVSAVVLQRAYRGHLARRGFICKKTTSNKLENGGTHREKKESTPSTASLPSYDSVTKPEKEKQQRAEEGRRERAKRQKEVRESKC
How it was run: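 PatchXpress automated patch clamp on HEK-293 cells expressing recombinant hNaV1.6; late current enhanced with 300 nM ATX-II. INaL evoked by 200 ms steps to 0 mV from about −120 mV at 0.1 Hz, measured as mean amplitude over the final 20 ms. Percent steady-state inhibition versus control current.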

[2] = target: T2, hNaV1.1-WT (Homo sapiens, UniProt P35498); experiment: Voltage step activated sodium current (Peak INa), PatchXpress, HEK-293; format: cell-based; details: percent inhibition measured at 1 μM; step to 0 mV from half-inactivation holding potential
T2 construct: expressed in transfected cells; host or cells: HEK-293
Description: (§1) Functional characterization of exemplary compounds to modulate INa expressed by various human isoforms and disease-causing mutant voltage-gated sodium channels was accomplished using the PatchXpress high throughput electrophysiology platform (Molecular Devices, Sunnyvale, Calif.). HEK-293 cells expressing a recombinant, human NaV1.X sodium channel (either hNaV1.6-WT, hNaV1.6-R223G, hNaV1.6-N984K, hNaV1.6-N1768D, hNaV1.1-WT, hNaV1.2-WT, hNaV1.5-WT, hNaV1.7-WT, or hNaV1.8-WT) were grown in DMEM/high-glucose Dulbecco's modified, 10% FBS, 2 mM sodium pyruvate, 10 mM HEPES and 400 μg/mL G418. Cells were grown to 50%-80% confluency prior to harvesting. Trypsinized cells were washed, allowed to recover for 1 hour and then resuspended in extracellular recording solution at a concentration of 1×10^6 cells/ml. The onboard liquid handling facility of the PatchXpress was used for dispensing cells and applying test compounds. INa amplitude and stability were determined by analyzing the peak current amplitude.
(§2) Peak INa was evoked by depolarizing steps to 0 mV for 20 ms from a holding potential which evoked half-inactivation (e.g., −60 mV) at a frequency of 0.1 Hz. The voltage of half-inactivation was determined for each cell using a 5 sec prepulse to membrane potentials between −120 mV and −20 mV followed immediately by a voltage step to a fully activating membrane voltage (e.g., 0 mV). Following steady state block with exemplary compounds (e.g., as described herein), the degree of inhibition was measured using the average of three consecutive voltage steps. Percent steady-state inhibition of INa was calculated as: [(INa_compound)/(INa_control)]*100, where INa_compound and INa_control represent INa recorded in the presence or absence of compound, respectively.
(§3) In this table, “A” indicates inhibition between less than 0% to 50% and “B” indicates inhibition of greater than 50% and N/A indicates the compound was not tested.

[3] = target: T3, hNaV1.5-WT (Homo sapiens, UniProt Q14524); experiment: as above; format: cell-based; details: HEK293; percent inhibition measured at 1 μM; step to 0 mV from half-inactivation holding potential
T3 construct: expressed in transfected cells; host or cells: HEK-293
Description: as §1, §2, §3

[4] = target: T4, hNaV1.6-WT (Homo sapiens, UniProt Q9UQD0); experiment: as above; format: cell-based; details: HEK293; percent inhibition measured at 1 μM; step to 0 mV from half-inactivation holding potential
T4 construct: expressed in transfected cells; host or cells: HEK-293
T4 sequence (Q9UQD0 whole entry): as above
Description: as §1, §2, §3

[5] = target: T5, hNaV1.7-WT (Homo sapiens, UniProt Q15858); experiment: as above; format: cell-based; details: HEK293; percent inhibition measured at 1 μM; step to 0 mV from half-inactivation holding potential
T5 construct: expressed in transfected cells; host or cells: HEK-293
T5 sequence (Q15858 whole entry): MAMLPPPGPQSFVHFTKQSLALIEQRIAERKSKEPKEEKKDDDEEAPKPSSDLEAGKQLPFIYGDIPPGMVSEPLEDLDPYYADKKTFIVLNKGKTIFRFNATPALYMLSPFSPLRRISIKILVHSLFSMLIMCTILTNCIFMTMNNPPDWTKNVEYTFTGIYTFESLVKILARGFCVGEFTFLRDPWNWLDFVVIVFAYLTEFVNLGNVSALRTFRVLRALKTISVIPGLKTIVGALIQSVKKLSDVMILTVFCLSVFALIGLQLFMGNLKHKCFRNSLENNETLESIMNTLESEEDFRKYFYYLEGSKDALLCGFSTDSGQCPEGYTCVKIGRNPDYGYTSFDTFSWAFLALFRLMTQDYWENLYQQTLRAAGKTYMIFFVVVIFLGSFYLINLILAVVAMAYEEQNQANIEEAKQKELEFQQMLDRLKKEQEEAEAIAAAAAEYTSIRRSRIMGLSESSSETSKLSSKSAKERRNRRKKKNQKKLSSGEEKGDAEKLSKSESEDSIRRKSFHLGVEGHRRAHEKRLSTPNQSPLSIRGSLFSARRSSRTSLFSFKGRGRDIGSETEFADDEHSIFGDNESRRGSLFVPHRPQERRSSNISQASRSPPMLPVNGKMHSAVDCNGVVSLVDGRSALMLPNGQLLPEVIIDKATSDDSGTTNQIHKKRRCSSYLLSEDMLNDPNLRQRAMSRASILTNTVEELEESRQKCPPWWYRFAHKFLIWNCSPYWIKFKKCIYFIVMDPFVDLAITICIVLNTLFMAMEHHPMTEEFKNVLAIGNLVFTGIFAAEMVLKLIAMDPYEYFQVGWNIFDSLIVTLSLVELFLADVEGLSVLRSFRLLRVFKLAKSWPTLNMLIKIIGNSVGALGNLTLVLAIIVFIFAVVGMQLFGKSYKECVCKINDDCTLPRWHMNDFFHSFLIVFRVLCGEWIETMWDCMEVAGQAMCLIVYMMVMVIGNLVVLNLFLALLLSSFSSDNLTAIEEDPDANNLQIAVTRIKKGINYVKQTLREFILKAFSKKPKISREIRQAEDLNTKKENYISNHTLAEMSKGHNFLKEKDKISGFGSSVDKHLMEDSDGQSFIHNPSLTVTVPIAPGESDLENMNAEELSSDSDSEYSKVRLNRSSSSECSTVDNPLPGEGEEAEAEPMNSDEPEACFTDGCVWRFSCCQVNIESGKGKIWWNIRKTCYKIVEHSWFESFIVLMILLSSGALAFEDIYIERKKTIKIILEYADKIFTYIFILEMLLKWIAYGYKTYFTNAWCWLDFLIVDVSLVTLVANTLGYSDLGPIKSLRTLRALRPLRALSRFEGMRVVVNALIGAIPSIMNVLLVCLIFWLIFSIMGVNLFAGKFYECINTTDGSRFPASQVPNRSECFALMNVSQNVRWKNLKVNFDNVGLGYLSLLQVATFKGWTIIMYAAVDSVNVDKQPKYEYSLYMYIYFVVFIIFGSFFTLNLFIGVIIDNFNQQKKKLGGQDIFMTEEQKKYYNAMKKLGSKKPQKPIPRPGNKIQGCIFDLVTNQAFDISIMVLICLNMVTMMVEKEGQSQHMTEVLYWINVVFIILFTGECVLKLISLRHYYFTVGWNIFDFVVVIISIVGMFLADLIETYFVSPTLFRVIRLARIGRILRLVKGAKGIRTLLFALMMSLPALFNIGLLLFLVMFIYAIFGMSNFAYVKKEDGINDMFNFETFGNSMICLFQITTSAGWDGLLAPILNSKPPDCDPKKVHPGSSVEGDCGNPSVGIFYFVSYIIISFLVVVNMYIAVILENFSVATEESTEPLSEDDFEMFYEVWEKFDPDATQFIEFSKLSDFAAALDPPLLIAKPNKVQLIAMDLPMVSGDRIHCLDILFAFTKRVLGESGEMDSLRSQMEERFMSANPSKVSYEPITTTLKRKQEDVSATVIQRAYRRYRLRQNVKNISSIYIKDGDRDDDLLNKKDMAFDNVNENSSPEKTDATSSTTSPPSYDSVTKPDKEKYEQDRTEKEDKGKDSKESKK
Description: as §1, §2, §3

[6] = target: T6, hNaV1.8-WT (Homo sapiens, UniProt Q9Y5Y9); experiment: as above; format: cell-based; details: HEK293; percent inhibition measured at 1 μM; step to 0 mV from half-inactivation holding potential
T6 construct: expressed in transfected cells; host or cells: HEK-293
Description: as §1, §2, §3

[7] = target: T7, hNaV1.6-N1768D (Homo sapiens, UniProt Q9UQD0, N1768D); experiment: Voltage ramp activated sodium current (Ramp INa), PatchXpress, HEK-293; format: cell-based; details: HEK293; percent inhibition of enhanced ramp current at 1 μM; +600 mv/sec ramp from −100 mV to +20 mV
T7 construct: expressed in transfected cells; host or cells: HEK-293
T7 sequence (Q9UQD0 whole entry N1768D): as the sequence (Q9UQD0 whole entry) above, with N1768D counted along it
Description: as §1
(§4) The Nav1.6 mutant channels (hNaV1.6-R223G, hNaV1.6-N984K, hNaV1.6-N1768D) express an enhanced sodium current in response to a ramp voltage depolarization when compared to the wild-type hNaV1.6-WT. This enhanced, depolarizing ramp current is thought to contribute to enhanced neuronal excitability. The degree of block with exemplary compounds (e.g., as described herein) was measured using a +600 mv/sec voltage ramp from −100 mV to +20 mV. The ramp current was defined as the area of the current measured between −55 mV and +15 mV. Following steady state block with exemplary compounds (e.g., as described herein) at 1 μM, a Na^+ free solution containing an impermeant cation (e.g., Choline or NMDG) was added for determination of the baseline current level for offline subtraction. Percent inhibition of enhanced ramp current was calculated as (compound−baseline)/(control−baseline)*100, where control represents the ramp current recorded in the absence of compound. In this table, “A” indicates inhibition between less than 0% to 50% and “B” indicates inhibition of greater than 50% and N/A indicates the compound was not tested.

[8] = target: T8, hNaV1.6-N984K (Homo sapiens, UniProt Q9UQD0, N984K); experiment: as above; format: cell-based; details: HEK293; percent inhibition of enhanced ramp current at 1 μM; +600 mv/sec ramp from −100 mV to +20 mV
T8 construct: expressed in transfected cells; host or cells: HEK-293
T8 sequence (Q9UQD0 whole entry N984K): as the sequence (Q9UQD0 whole entry) above, with N984K counted along it
Description: as §1, §4

[9] = target: T9, hNaV1.6-R223G (Homo sapiens, UniProt Q9UQD0, R223G); experiment: as above; format: cell-based; details: HEK293; percent inhibition of enhanced ramp current at 1 μM; +600 mv/sec ramp from −100 mV to +20 mV
T9 construct: expressed in transfected cells; host or cells: HEK-293
T9 sequence (Q9UQD0 whole entry R223G): as the sequence (Q9UQD0 whole entry) above, with R223G counted along it
Description: as §1, §4

[10] = tested on: Male CD-1 mice; experiment: Maximal Electroshock induced Seizure (MES) assay in mice; format: in vivo, mouse; details: 35% HPCD, recorded up to 60 seconds post stimulus
Description: Male CD-1 mice, weighing 25-35 g were assessed in the Maximal Electroshock induced Seizure (MES) assay. Briefly, mice were dosed with compound (n=12/group) according to the dosing parameters in Table 20 and the latency to induce tonic hind limb extension following transauricular electrical stimulation (50 Hz, 50 mA, 0.8 sec duration, pulse width of 10 ins) was recorded up to 60 seconds post stimulus.

[11] = target: T10, hNaV1.2-WT (Homo sapiens, UniProt Q99250); experiment: Voltage step activated sodium current (Peak INa), PatchXpress, HEK-293; format: cell-based; details: percent inhibition measured at 1 μM; step to 0 mV from half-inactivation holding potential
T10 construct: expressed in transfected cells; host or cells: HEK-293
Description: as §1, §2, §3

[12] = target: T11, human NaV 1.2 (h NaV 1.2) (Homo sapiens, UniProt Q99250); experiment: Modulation of late sodium current (INaL), PatchXpress electrophysiology, HEK-293 cells expressing hNaV1.2; format: cell-based; details: HEK293, read-out: NaV 1.2 Assay Data: percent inhibition of INaL at hNaV1.2
T11 construct: expressed in transfected cells; host or cells: HEK-293

[13] = 3 mg/kg PO, pre-treatment 30 min
[14] = 10 mg/kg PO, pre-treatment 30 min

| Compound | inhibition at 1 µM [1] | hNav1.1 Peak INa [2] | inhibition at 1 µM [3] | inhibition at 1 µM [4] | inhibition at 1 µM [5] | inhibition at 1 µM [6] | inhibition at 1 µM [7] | inhibition at 1 µM [8] | inhibition at 1 µM [9] | Mean latency to tonic extension [10, 13] | Mean latency to tonic extension [10, 14] | hNav1.2 Peak INa [11] | Mean latency to tonic extension ([10]; 1 mg/kg PO, pre-treatment 120 min) | Mean latency to tonic extension ([10]; 3 mg/kg PO, pre-treatment 120 min) | inhibition at 1 µM [12] | Mean latency to tonic extension ([10]; 1 mg/kg PO, pre-treatment 30 min) |
| --- | --- | --- | --- | --- | --- | --- | --- | --- | --- | --- | --- | --- | --- | --- | --- | --- |
| CCOC(F)(F)c1nnc2ccc(-c3cnc(OCC(F)(F)F)c(F)c3)cn12 [Compound 3, 3-[ethoxy(difluoro)methyl]-6-[5-fluoro-6-(2,2,2-trifluoroethoxy)-3-pyridyl]-[1,2,4]triazolo[4,3-a]pyridine] | > 70% | B (inhibition of greater than 50%) | > 50% | > 50% | > 50% | > 50% | > 50% | > 50% | > 50% | 60 s | 60 s |  |  |  |  |  |
| COC(F)(F)c1nnc2cnc(-c3cnc(O[C@@H](C)C(F)(F)F)c(F)c3)cn12 [Compound 6B, 3-[difluoro(methoxy)methyl]-6-[5-fluoro-6-[(1S)-2,2,2-trifluoro-1-methyl-ethoxy]-3-pyridyl]-[1,2,4]triazolo[4,3-a]pyrazine] | > 70% | B (inhibition of greater than 50%) | > 50% | > 50% | > 50% | > 50% | > 50% | > 50% | > 50% |  |  | B (inhibition of greater than 50%) | 17.3 s | 50.5 s |  |  |
| CCOC(F)(F)c1nnc2cnc(-c3cnc(OCC(F)(F)F)c(F)c3)cn12 [Compound 10] | > 70% | B (inhibition of greater than 50%) | > 50% | > 50% | > 50% | > 50% | > 50% | < 50% | > 50% | 36.3 s | 55.2 s | A (inhibition between less than 0% to 50%) |  |  | > 70% | 7.9 s |
| COC(F)(F)c1nnc2cnc(-c3cnc(OC4(C(F)(F)F)CCC4)c(F)c3)cn12 [Compound 11, 3-[difluoro(methoxy)methyl]-6-[5-fluoro-6-[1-(trifluoromethyl)cyclobutoxy]-3-pyridyl]-[1,2,4]triazolo[4,3-a]pyrazine] | > 70% | B (inhibition of greater than 50%) | > 50% | > 50% | > 50% | > 50% | > 50% | > 50% | < 50% |  |  |  |  |  |  |  |
| CCOC(F)(F)c1nnc2ccc(-c3cnc(OCC(F)(F)F)c(F)c3)nn12 [Compound 16, 3-[ethoxy(difluoro)methyl]-6-[5-fluoro-6-(2,2,2-trifluoroethoxy)-3-pyridyl]-[1,2,4]triazolo[4,3-b]pyridazine] | > 70% |  |  |  |  |  |  |  |  |  |  |  |  |  | > 70% |  |
| COCc1nnc2cnc(-c3cnc(OC(C)(C)C(F)(F)F)c(F)c3)cn12 [Compound 48] | > 70% |  | > 50% | > 50% | > 50% | > 50% | > 50% | < 50% | < 50% | 42.5 s | 60 s |  |  |  |  |  |
| COC(F)(F)c1nnc2cnc(-c3ccc(OC(C)(C)C(F)(F)F)nc3)cn12 [Compound 56, 3-[difluoro(methoxy)methyl]-6-[6-(2,2,2-trifluoro-1,1-dimethyl-ethoxy)-3-pyridyl]-[1,2,4]triazolo[4,3-a]pyrazine] | > 70% | B (inhibition of greater than 50%) | > 50% | > 50% | > 50% | > 50% | > 50% | > 50% | < 50% |  |  | B (inhibition of greater than 50%) |  |  | > 70% |  |
| COC(F)(F)c1nnc2cnc(-c3ccc(O[C@@H](C)C(F)(F)F)nc3)cn12 [Compound 59, 3-[difluoro(methoxy)methyl]-6-[6-[(1S)-2,2,2-trifluoro-1-methyl-ethoxy]-3-pyridyl]-[1,2,4]triazolo[4,3-a]pyrazine] | > 70% | B (inhibition of greater than 50%) | > 50% | > 50% | > 50% | > 50% | > 50% | > 50% | > 50% |  |  | B (inhibition of greater than 50%) |  |  | > 70% |  |
